pIC50: −log10 of the molar value. Like-named read-outs stand apart in the source and are kept apart here. *1 amine or outer side, *2 acyl side, *3 side chain or, on linkers, in order; H or OH if unused. Where a SMILES comes first, the peptide text is derived from it. [ ]: non-standard residue; d: D form. The star is where a group is joined. Benzenesulfonyl(4-OPh) = O=S(=O)(c1ccc(Oc2ccccc2)cc1)*; Benzoyl(4-OPh) = O=C(c1ccc(Oc2ccccc2)cc1)*; NMeGABA = CN(CCCC(=O)[*:2])[*:1]; NMeI = CC[C@H](C)[C@H](NC)C(=O)O; NMeE = CN[C@@H](CCC(=O)O)C(=O)O; NMeN = CN[C@@H](CC(N)=O)C(=O)O; NMeL = CN[C@@H](CC(C)C)C(=O)O; NMeV = CN[C@H](C(=O)O)C(C)C; β3hP = O=C(O)C[C@@H]1CCCN1; NMeA = CN[C@@H](C)C(=O)O; Dab = NCC[C@H](N)C(=O)O; Aib = CC(C)(N)C(=O)O; Ava = NCCCCC(=O)O; GABA = NCCCC(=O)O; Sar = CNCC(=O)O
Biological target: T1, MMP2 (Homo sapiens, UniProt P08253)
T1 sequence (P08253 110-660): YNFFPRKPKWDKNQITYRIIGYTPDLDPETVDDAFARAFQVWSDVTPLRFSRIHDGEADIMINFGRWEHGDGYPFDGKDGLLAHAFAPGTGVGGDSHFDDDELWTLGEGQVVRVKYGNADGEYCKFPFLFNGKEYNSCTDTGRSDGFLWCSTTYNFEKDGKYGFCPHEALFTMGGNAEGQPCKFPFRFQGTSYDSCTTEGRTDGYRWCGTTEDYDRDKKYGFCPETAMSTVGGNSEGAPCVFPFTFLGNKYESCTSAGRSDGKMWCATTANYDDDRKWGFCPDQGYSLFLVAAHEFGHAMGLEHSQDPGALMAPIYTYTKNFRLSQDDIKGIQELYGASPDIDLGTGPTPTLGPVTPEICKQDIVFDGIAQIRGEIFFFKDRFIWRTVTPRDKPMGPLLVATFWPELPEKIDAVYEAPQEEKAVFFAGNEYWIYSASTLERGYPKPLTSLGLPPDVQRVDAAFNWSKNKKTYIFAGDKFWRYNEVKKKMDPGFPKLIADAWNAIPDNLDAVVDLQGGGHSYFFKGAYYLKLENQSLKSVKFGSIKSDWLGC
Experiment: Inhibitory effects on human MMP2 (Method 1), enzyme assay with MOCAc-Pro-Leu-Gly-Leu-A2pr(Dnp)-Ala-Arg-NH2 substrate, 96-well
Assay type: biochemical
Method: In a reaction solution [50 mmol/L Tris-HCl (pH 7.5), 150 mmol/L NaCl, 10 mmol/L CaCl2, 0.05% Brij L23], 100 μg/mL human recombinant MMP2 enzyme and 1 mmol/L 4-Aminophenylmercuric acetate were mixed together, and reacted at 37° C. for 60 minutes. The human MMP2 activated through the reaction was poured into a 96-well microplate to reach a final concentration of 0.7 or 7 ng/mL.

[1] = Test Example No. 1-1 (Method 1, 96-well microplate), read-out: Human MMP2, IC50

Structure (SMILES) | pIC50 [1] | pIC50
CC[C@H](C)[C@@H](C(=O)N1CCC[C@H]1CC(N)=O)N(C)C(=O)[C@H](CC(C)C)NC(=O)[C@H](CCN)NC(=O)[C@H](CC(=O)O)NC(=O)[C@H](NC(=O)CCCCNS(=O)(=O)c1ccc(Oc2ccccc2)cc1)[C@H](C)O [Compound 85] ({Benzenesulfonyl(4-OPh)-Ava}-[dT]D[Dab]L[NMeI][β3hP]-NH2; N-terminus assumed) | 9.31 | 
CC[C@H](C)[C@@H](C(=O)N1CCC[C@H]1C(N)=O)N(C)C(=O)[C@H](CC(C)C)NC(=O)[C@H](C)NC(=O)[C@H](CC(=O)O)NC(=O)[C@H](C)N(C)C(=O)CCCNC(=O)c1ccc(Oc2ccccc2)cc1 [Compound 92] ({Benzoyl(4-OPh)-GABA}-[NMeA]DAL[NMeI]P-NH2; N-terminus assumed) | 9.51 | 
CC[C@H](C)[C@@H](C(=O)N1CCC[C@H]1C(N)=O)N(C)C(=O)[C@H](CC(C)C)NC(=O)[C@H](C)NC(=O)[C@H](CC(=O)O)NC(=O)[C@H](CC(N)=O)N(C)C(=O)CCCNC(=O)c1ccc(Oc2ccccc2)cc1 [Compound 94] ({Benzoyl(4-OPh)-GABA}-[NMeN]DAL[NMeI]P-NH2; N-terminus assumed) | 10.06 | 
CC[C@H](C)[C@@H](C(=O)NC(C)(C)C(N)=O)N(C)C(=O)[C@H](CC(C)C)NC(=O)[C@H](C)NC(=O)[C@H](CC(=O)O)NC(=O)[C@H](C)N(C)C(=O)CCCNC(=O)c1ccc(Oc2ccccc2)cc1 [Compound 96] ({Benzoyl(4-OPh)-GABA}-[NMeA]DAL[NMeI][Aib]-NH2) | 9.13 | 
CC[C@H](C)[C@@H](C(=O)NC(C)(C)C(N)=O)N(C)C(=O)[C@H](CC(C)C)NC(=O)[C@H](C)NC(=O)[C@H](CC(=O)O)NC(=O)[C@H](CC(N)=O)N(C)C(=O)CCCNC(=O)c1ccc(Oc2ccccc2)cc1 [Compound 98] ({Benzoyl(4-OPh)-GABA}-[NMeN]DAL[NMeI][Aib]-NH2; N-terminus assumed) | 9.57 | 
CC[C@H](C)[C@@H](C(=O)N1CCC[C@H]1C(N)=O)N(C)C(=O)[C@H](CC(C)C)NC(=O)[C@H](C)NC(=O)[C@H](CC(=O)O)NC(=O)[C@H](C)N(C)C(=O)CCCN(C)C(=O)c1ccc(Oc2ccccc2)cc1 [Compound 100] ({Benzoyl(4-OPh)}-[NMeGABA][NMeA]DAL[NMeI]P-NH2; N-terminus assumed) | 8.92 | 
CC[C@H](C)[C@@H](C(=O)N1CCC[C@H]1C(N)=O)N(C)C(=O)[C@H](CC(C)C)NC(=O)[C@H](C)NC(=O)[C@H](CC(=O)O)NC(=O)[C@H](CC(N)=O)N(C)C(=O)CCCN(C)C(=O)c1ccc(Oc2ccccc2)cc1 [Compound 103] ({Benzoyl(4-OPh)}-[NMeGABA][NMeN]DAL[NMeI]P-NH2; N-terminus assumed) | 9.17 | 
CC[C@H](C)[C@@H](C(=O)N1CCC[C@H]1CC(N)=O)N(C)C(=O)[C@H](CC(C)C)NC(=O)[C@H](CCN)NC(=O)[C@H](CC(=O)O)NC(=O)[C@H](CC(N)=O)NC(=O)CCCNC(=O)c1ccc(Oc2ccccc2)cc1 [Compound 106] |  | 9.80
CC[C@H](C)[C@@H](C(=O)N1CCC[C@H]1C(N)=O)N(C)C(=O)[C@H](CC(C)C)NC(=O)[C@H](CCN)NC(=O)[C@H](CC(=O)O)NC(=O)[C@H](CC(N)=O)NC(=O)CCCNC(=O)c1ccc(Oc2ccccc2)cc1 [Compound 107] ({Benzoyl(4-OPh)-GABA}-ND[Dab]L[NMeI]P-NH2; N-terminus assumed) | 9.49 | 
CC(C)C[C@H](NC(=O)[C@H](CCN)NC(=O)[C@H](CC(=O)O)NC(=O)[C@H](CC(N)=O)NC(=O)CCCNC(=O)c1ccc(Oc2ccccc2)cc1)C(=O)N(C)[C@@H](CCC(=O)O)C(=O)N1CCC[C@H]1CC(N)=O [Compound 108] ({Benzoyl(4-OPh)-GABA}-ND[Dab]L[NMeE][β3hP]-NH2) | 9.72 | 
CC(C)C[C@H](NC(=O)[C@H](CCN)NC(=O)[C@H](CC(=O)O)NC(=O)[C@H](CC(N)=O)NC(=O)CCCNC(=O)c1ccc(Oc2ccccc2)cc1)C(=O)N(C)[C@@H](CCC(=O)O)C(=O)N1CCC[C@H]1C(N)=O [Compound 109] ({Benzoyl(4-OPh)-GABA}-ND[Dab]L[NMeE]P-NH2; N-terminus assumed) | 9.15 | 
CC[C@H](C)[C@@H](C(=O)N1CCC[C@H]1CC(N)=O)N(C)C(=O)[C@H](CC(C)C)NC(=O)[C@H](CCN)NC(=O)[C@H](CC(=O)O)NC(=O)[C@H](CC(N)=O)N(C)C(=O)CCCNC(=O)c1ccc(Oc2ccccc2)cc1 [Compound 110] ({Benzoyl(4-OPh)-GABA}-[NMeN]D[Dab]L[NMeI][β3hP]-NH2; N-terminus assumed) | 9.43 | 
CC[C@H](C)[C@@H](C(=O)N1CCC[C@H]1C(N)=O)N(C)C(=O)[C@H](CC(C)C)NC(=O)[C@H](CCN)NC(=O)[C@H](CC(=O)O)NC(=O)[C@H](CC(N)=O)N(C)C(=O)CCCNC(=O)c1ccc(Oc2ccccc2)cc1 [Compound 111] ({Benzoyl(4-OPh)-GABA}-[NMeN]D[Dab]L[NMeI]P-NH2; N-terminus assumed) | 9.02 | 
CC(C)C[C@H](NC(=O)[C@H](CCN)NC(=O)[C@H](CC(=O)O)NC(=O)[C@H](CC(N)=O)N(C)C(=O)CCCNC(=O)c1ccc(Oc2ccccc2)cc1)C(=O)N(C)[C@@H](CCC(=O)O)C(=O)N1CCC[C@H]1CC(N)=O [Compound 112] ({Benzoyl(4-OPh)-GABA}-[NMeN]D[Dab]L[NMeE][β3hP]-NH2; N-terminus assumed) | 9.26 | 
CC(C)C[C@H](NC(=O)[C@H](CCN)NC(=O)[C@H](CC(=O)O)NC(=O)[C@H](CC(N)=O)N(C)C(=O)CCCNC(=O)c1ccc(Oc2ccccc2)cc1)C(=O)N(C)[C@@H](CCC(=O)O)C(=O)N1CCC[C@H]1C(N)=O [Compound 113] ({Benzoyl(4-OPh)-GABA}-[NMeN]D[Dab]L[NMeE]P-NH2; N-terminus assumed) | 8.66 | 
CC[C@H](C)[C@@H](C(=O)N1CCC[C@H]1C(N)=O)N(C)C(=O)[C@H](CC(C)C)NC(=O)[C@H](C)NC(=O)[C@H](CC(=O)O)NC(=O)[C@@H](CC(N)=O)NC(=O)CCCNC(=O)c1ccc(Oc2ccccc2)cc1 [Compound 114] ({Benzoyl(4-OPh)-GABA}-[dN]DAL[NMeI]P-NH2; N-terminus assumed) | 10.14 | 
CC[C@H](C)[C@@H](C(=O)N1CCC[C@H]1C(N)=O)N(C)C(=O)[C@H](CC(C)C)NC(=O)[C@H](C)NC(=O)[C@H](CC(=O)O)NC(=O)CN(C)C(=O)CCCNC(=O)c1ccc(Oc2ccccc2)cc1 [Compound 115] ({Benzoyl(4-OPh)-GABA}-[Sar]DAL[NMeI]P-NH2; N-terminus assumed) | 9.38 | 
CC[C@H](C)[C@@H](C(=O)N1CCC[C@H]1C(N)=O)N(C)C(=O)[C@H](CC(C)C)NC(=O)[C@H](C)NC(=O)[C@H](CC(=O)O)NC(=O)[C@@H]1CCCN1C(=O)CCCNC(=O)c1ccc(Oc2ccccc2)cc1 [Compound 117] ({Benzoyl(4-OPh)-GABA}-PDAL[NMeI]P-NH2; N-terminus assumed) | 9.26 | 
CC[C@H](C)[C@@H](C(=O)N1CCC[C@H]1C(N)=O)N(C)C(=O)[C@H](CC(C)C)NC(=O)[C@H](C)NC(=O)[C@H](CC(=O)O)NC(=O)[C@H](C(C)C)N(C)C(=O)CCCNC(=O)c1ccc(Oc2ccccc2)cc1 [Compound 119] ({Benzoyl(4-OPh)-GABA}-[NMeV]DAL[NMeI]P-NH2; N-terminus assumed) | 9.77 | 
CC[C@H](C)[C@@H](C(=O)N1CCC[C@H]1C(N)=O)N(C)C(=O)[C@H](CC(C)C)NC(=O)[C@H](C)NC(=O)[C@H](CC(=O)O)NC(=O)[C@H](CC(C)C)N(C)C(=O)CCCNC(=O)c1ccc(Oc2ccccc2)cc1 [Compound 120] ({Benzoyl(4-OPh)-GABA}-[NMeL]DAL[NMeI]P-NH2; N-terminus assumed) | 9.68 | 

Source: US20240199692A1 (priority 2019, published 2024)
